Legend:
[1] = Aqueous solubility of compound at pH 2 at 0.1 to 10 mg; type: physicochemical; settings: aqueous medium, dose 0.1-10 mg
[2] = Aqueous solubility of compound at pH 7 at 0.1 to 10 mg; type: physicochemical; settings: aqueous medium, dose 0.1-10 mg
[3] = Aqueous solubility of compound at pH 7.4 at 0.1 to 10 mg; type: physicochemical; settings: aqueous medium, dose 0.1-10 mg
[4] = Metabolic stability in human liver microsomes assessed as half life preincubated for 10 mins followed by NADPH regenerating system addition and measured after 2 hrs by LC-MS/MS analysis; type: ADME, Microsome; settings: time 130 min
[5] = Metabolic stability in human liver microsomes assessed as intrinsic clearance preincubated for 10 mins followed by NADPH regenerating system addition and measured after 2 hrs by LC-MS/MS analysis; type: ADME, Microsome; settings: time 130 min, read-out: CLH
[6] = Metabolic stability in human liver microsomes assessed as parent compound remaining preincubated for 10 mins followed by NADPH regenerating system addition and measured after 60 mins by LC-MS/MS analysis; type: ADME, Microsome; settings: time 70 min, read-out: Stability
[7] = Half life in ICR mouse at 2 mg/kg, iv measured for 12 hrs by LC-MS/MS analysis; type: ADME, organism-based; settings: in vivo
[8] = Half life in ICR mouse at 10 mg/kg, po measured for 12 hrs by LC-MS/MS analysis; type: ADME, organism-based; settings: in vivo
[9] = Tmax in ICR mouse at 2 mg/kg, iv measured for 12 hrs by LC-MS/MS analysis; type: ADME, organism-based; settings: in vivo
[10] = Tmax in ICR mouse at 10 mg/kg, po measured for 12 hrs by LC-MS/MS analysis; type: ADME, organism-based; settings: in vivo
[11] = Cmax in ICR mouse at 2 mg/kg, iv measured for 12 hrs by LC-MS/MS analysis; type: ADME, organism-based; set-up: time 12 hrs, dose 2 mg/kg, route iv; settings: in vivo
[12] = Cmax in ICR mouse at 10 mg/kg, po measured for 12 hrs by LC-MS/MS analysis; type: ADME, organism-based; set-up: time 12 hrs, dose 10 mg/kg, route po; settings: in vivo
[13] = AUC (0 to t) in ICR mouse at 2 mg/kg, iv measured for 12 hrs by LC-MS/MS analysis; type: ADME, organism-based; set-up: dose 2 mg/kg, time 12 hrs, route iv; settings: in vivo
[14] = AUC (0 to t) in ICR mouse at 10 mg/kg, po measured for 12 hrs by LC-MS/MS analysis; type: ADME, organism-based; set-up: dose 10 mg/kg, time 12 hrs, route po; settings: in vivo
[15] = AUC (0 to infinity) in ICR mouse at 2 mg/kg, iv measured for 12 hrs by LC-MS/MS analysis; type: ADME, organism-based; set-up: dose 2 mg/kg, time 12 hrs, route iv; settings: in vivo
[16] = AUC (0 to infinity) in ICR mouse at 10 mg/kg, po measured for 12 hrs by LC-MS/MS analysis; type: ADME, organism-based; set-up: time 12 hrs, dose 10 mg/kg, route po; settings: in vivo
[17] = Clearance in ICR mouse at 2 mg/kg, iv measured for 12 hrs by LC-MS/MS analysis; type: ADME, organism-based; settings: in vivo
[18] = Oral bioavailability in ICR mouse at 10 mg/kg measured for 12 hrs by LC-MS/MS analysis; type: ADME, organism-based; settings: in vivo
[19] = Acute toxicity in Kunming mouse assessed as abnormal behaviour at 2000 mg/kg, po administered for 7 days; type: organism-based; settings: in vivo, 168 h, time 7 day
[20] = Acute toxicity in Kunming mouse assessed as change in body weight at 2000 mg/kg, po administered for 7 days; type: organism-based; settings: in vivo, 168 h, time 7 day
[21] = Subacute toxicity in Kunming mouse assessed as signs of toxicity at 50 mg/kg/day, po administered for 2 weeks; type: organism-based; settings: in vivo, 336 h
[22] = Subacute toxicity in Kunming mouse assessed as lethargy at 50 mg/kg/day, po administered for 2 weeks; type: organism-based; settings: in vivo, 336 h
[23] = Subacute toxicity in Kunming mouse assessed as clonic convulsion at 50 mg/kg/day, po administered for 2 weeks; type: organism-based; settings: in vivo, 336 h
[24] = Subacute toxicity in Kunming mouse assessed as anorexia at 50 mg/kg/day, po administered for 2 weeks; type: organism-based; settings: in vivo, 336 h
[25] = Subacute toxicity in Kunming mouse assessed as ruffled fur at 50 mg/kg/day, po administered for 2 weeks; type: organism-based; settings: in vivo, 336 h
[26] = Subacute toxicity in Kunming mouse assessed as abnormalities in heart at 50 mg/kg/day, po administered for 2 weeks; type: organism-based; settings: in vivo, 336 h
[27] = Subacute toxicity in Kunming mouse assessed as abnormalities in liver at 50 mg/kg/day, po administered for 2 weeks; type: organism-based; settings: in vivo, 336 h
[28] = Subacute toxicity in Kunming mouse assessed as abnormalities in spleen at 50 mg/kg/day, po administered for 2 weeks; type: organism-based; settings: in vivo, 336 h
[29] = Subacute toxicity in Kunming mouse assessed as abnormalities in lungs at 50 mg/kg/day, po administered for 2 weeks; type: organism-based; settings: in vivo, 336 h
[30] = Subacute toxicity in Kunming mouse assessed as abnormalities in kidneys at 50 mg/kg/day, po administered for 2 weeks; type: organism-based; settings: in vivo, 336 h
[31] = Subacute toxicity in Kunming mouse assessed as appearance of lesions in heart at 50 mg/kg/day, po administered for 2 weeks; type: organism-based; settings: in vivo, 336 h
[32] = Subacute toxicity in Kunming mouse assessed as appearance of lesions in liver at 50 mg/kg/day, po administered for 2 weeks; type: organism-based; settings: in vivo, 336 h
[33] = Subacute toxicity in Kunming mouse assessed as appearance of lesions in spleen at 50 mg/kg/day, po administered for 2 weeks; type: organism-based; settings: in vivo, 336 h
[34] = Subacute toxicity in Kunming mouse assessed as appearance of lesions in lungs at 50 mg/kg/day, po administered for 2 weeks; type: organism-based; settings: in vivo, 336 h
[35] = Subacute toxicity in Kunming mouse assessed as appearance of lesions in kidneys at 50 mg/kg/day, po administered for 2 weeks; type: organism-based; settings: in vivo, 336 h

`Cc1cc(/C=C/C#N)cc(C)c1Oc1nc(Nc2ccc(C#N)c(F)c2)nc2c1COC2.Cl` gave a solubility [1] of 349 µg/mL, a solubility [2] of 149 µg/mL and a solubility [3] of 38.9 µg/mL. For the same compound, the half-life [4] was 11.3 min, the microsomal CLint [5] was 87.6 µL/min/mg and the remaining at 1 h [6] was 5%. The half-life [7] was 85.8 min, the half-life [8] was 307 min and the Tmax [9] was 0 h. The Tmax [10] was 15 min, the Cmax [11] was 484 ng/mL and the Cmax [12] was 37.5 ng/mL. It also gave an AUC(0-t) at 12 h [13] of 250 ng·h/mL, an AUC(0-t) at 12 h [14] of 107 ng·h/mL and an AUC [15] of 255 ng·h/mL. For the same compound, the AUC(0-inf) [16] was 154 ng·h/mL, the CL [17] was 1720 mL/min/kg and the bioavailability [18] was 12.1%. The Activity [19] was “Non-Toxic”, the Activity [20] was “Non-Toxic” and the Activity [21] was “Non-Toxic”. For the same compound, the Activity [22] was “Non-Toxic”, the Activity [23] was “Non-Toxic” and the Activity [24] was “Non-Toxic”. The Activity [25] was “Non-Toxic”, the Activity [26] was “Non-Toxic” and the Activity [27] was “Non-Toxic”. The Activity [28] was “Non-Toxic”, the Activity [29] was “Non-Toxic” and the Activity [30] was “Non-Toxic”. For the same compound, the Activity [31] was “Non-Toxic”, the Activity [32] was “Non-Toxic” and the Activity [33] was “Non-Toxic”. For the same compound, the Activity [34] was “Non-Toxic” and the Activity [35] was “Non-Toxic”.

From ChEMBL document CHEMBL5236598, “Lead Optimization and Avoidance of Metabolic-perturbing Motif Developing Novel Diarylpyrimidines as Potent HIV-1 NNRTIs” (J Med Chem, 2022)
